This is an account of results in paper PMC3855825 (Molecular and biochemical parasitology, 2012).

Assay [1] relates to Saccharomyces cerevisiae complex III. The note with it: read-out: IC50 for Saccharomyces cerevisiae complex III; cited from earlier work.
For the next assay, the system named is human complex III. The following applies: read-out: IC50 for human complex III; cited from earlier work.
The target in a further assay is TgDHOD (Toxoplasma gondii, UniProt Q8MXD1). Put plainly: Inhibition of recombinant TgDHOD-VSSM, DCIP reduction assay with QD. The note with it: for Effect on TgDHOD activity (in words): no concentration stated at the place; for Type of inhibition of TgDHOD (best fit): QD as variable substrate, saturating dihydroorotate, SigmaPlot12 fit; for Inhibition of TgDHOD (in words): inhibitor 1 mM, DCIP reduction assay with QD.

Assay [2] deals with PfDHOD. The following applies: read-out: Km for quinone, recombinant PfDHOD; cited from earlier work.
Assay [3] concerns PfDHOD. The following applies: read-out: PfDHOD IC50, cited from earlier work.
For assay [4], the system named is HsDHOD. The note with it: read-out: HsDHOD IC50, cited from earlier work.
For another assay, the target named is T1, TgDHOD-VSSM (Toxoplasma gondii, UniProt Q8MXD1).
T1 sequence (Q8MXD1 178-592): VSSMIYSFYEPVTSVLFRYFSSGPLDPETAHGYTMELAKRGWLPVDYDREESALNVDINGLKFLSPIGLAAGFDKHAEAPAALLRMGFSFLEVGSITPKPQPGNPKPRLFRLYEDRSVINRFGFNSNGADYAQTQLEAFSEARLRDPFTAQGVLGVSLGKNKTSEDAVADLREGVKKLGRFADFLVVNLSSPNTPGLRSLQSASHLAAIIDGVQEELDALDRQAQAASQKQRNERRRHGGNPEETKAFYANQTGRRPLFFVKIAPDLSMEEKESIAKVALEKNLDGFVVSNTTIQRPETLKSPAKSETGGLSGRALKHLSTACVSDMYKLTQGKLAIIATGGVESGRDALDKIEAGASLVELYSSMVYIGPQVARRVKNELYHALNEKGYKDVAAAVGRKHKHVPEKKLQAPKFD
Put plainly: Use of electron acceptors and substrate kinetics of TgDHOD-VSSM.

Assay [5] relates to HsDHOD. The note with it: read-out: Km for QD, HsDHOD; cited from earlier work.
[6] abbreviates: read-out: TgDHOD activity compared to the control.

“Also recorded” adds a separate entry of the source. Where two headings read alike, the source gives them in different places.

As for `O=C1C(O)=C([C@H]2CC[C@H](c3ccc(Cl)cc3)CC2)C(=O)c2ccccc21` [atovaquone, trans-2-[4-(chlorophenyl)cyclohexyl]-3-hydroxy-1,4-naphthoquinone], the IC50 is 0.04 µM in assay [1] and 0.4 µM with human complex III. Besides, the “Effect on TgDHOD activity (in words)” value at TgDHOD is “not significantly affected”; at TgDHOD (listed as Atovaquone), “little effect”. The remaining activity at 100 µM at TgDHOD (setting [6]) came out at 80.6%.

As to `COc1cc(-c2ccc(Nc3ccccc3C(=O)O)c(OC)c2)ccc1Nc1ccccc1C(=O)O` [redoxal, (2,2′-[3,3′-dimethoxy[1,1′-biphenyl]-4,4′-diyl]diimino)bis-benzoic acid], on TgDHOD, the “Effect on TgDHOD activity (in words)” value was “not efficient inhibitors”.

In the case of `COC1=C(OC)C(=O)C(C)=CC1=O` [Q0, 2,3-dimethoxy-5-methyl-1,4-benzoquinone], in the assay with PfDHOD [2], the Km was 55 to 115 µM.

Consider `Cc1cc(Nc2cc(F)c(C(F)(F)F)c(F)c2)n2ncnc2n1` [DSM190, N-(3,5-difluoro-4-(trifluoromethyl)phenyl)-5-methyl-[1,2,4]triazolo[1,5-a]pyrimidin-7-amine], for which the IC50 in the assay on PfDHOD [3] (ref 16 Gujjar et al., 2011) is 0.19 µM; with HsDHOD [4] (ref 16 Gujjar et al., 2011), above 30 µM. Besides, the “Effect on TgDHOD activity (in words)” value at TgDHOD was “poor inhibitor”.

`O=C1C(Cl)=CC(=Nc2ccc(O)cc2)C=C1Cl` [DCIP, 2,6 dichlorophenol-indophenol]: on TgDHOD-VSSM (DCIP as only electron acceptor, 0.1 mM, 1 mM dihydroorotate), the “kcat, background activity in the absence of ubiquinone” value was determined as 28.1 ± 0.7 s⁻¹.

For the compound `CC(O)=C(C#N)C(=O)Nc1ccc(-c2cccc(Cl)c2Cl)cc1Cl` [MD249], the IC50 is 9.9 µM with PfDHOD [3] (ref 17 Davies et al., 2009) and 0.33 µM in the assay with HsDHOD [4] (ref 17 Davies et al., 2009). Besides, the “Type of inhibition of TgDHOD (best fit)” value on TgDHOD is given as “partial mixed inhibition”.

`COc1ccccc1-c1ccc(NC(=O)C(C#N)=C(C)O)c(Cl)c1` [MD209, N-(3-chloro-2′-methoxybiphenyl-4-yl)-2-cyano-3-hydroxybut-2-enamide]: the IC50 in the assay on PfDHOD [3] (ref 17 Davies et al., 2009) was 8.6 µM. Also, in the assay with HsDHOD [4] (ref 17 Davies et al., 2009), the IC50 is 0.2 µM. Moreover, at TgDHOD, the Ki is 18 µM and the “Type of inhibition of TgDHOD (best fit)” value is on record as “partial mixed inhibition”.

As to `O=C(O)/C=C/C(=O)O` [Fumarate], the “Activity as electron acceptor for TgDHOD (in words)” value at TgDHOD-VSSM was “poor electron acceptor; also recorded: negligible activity”.

`Cc1c(-c2ccc(-c3ccccc3F)cc2)nc2ccc(F)cc2c1C(=O)O` [brequinar, 6-fluoro-2-(2′-fluoro-1,1-biphenyl-4-yl)-3-methyl-4-quinoline carboxylic acid]: on TgDHOD, the “Inhibition of TgDHOD (in words)” value is listed as “No significant inhibition” and the “Effect on TgDHOD activity (in words)” value was “not significantly affected; also recorded: not efficient inhibitors”.

Consider `CCCCCCCCCCC1=C(C)C(=O)C(OC)=C(OC)C1=O` [QD, 2,3-dimethoxy-5-methyl-6-decyl-1,4-benzoquinone], for which the Km in the assay on HsDHOD [5] is 14 µM.

As to `Cc1cc(-n2c(=O)[nH]c(=O)n(C)c2=O)ccc1Oc1ccc(SC(F)(F)F)cc1` [toltrazuril, 1-(3-methyl-4(4′-trifluoromethylthiophenoxy)phenyl)-3-methyl-1,3,5-triazine-2,4,6-(1H,3H,5H)-trione], at TgDHOD, the “Effect on TgDHOD activity (in words)” value was “little effect”. In addition, the remaining activity at 500 µM at TgDHOD (setting [6]) was found to be 82.9%.

For the compound `O=C(CC(=O)C(F)(F)F)c1cccs1` [TTFA, 4,4,4-trifluoro-1-(thienyl)-1,3-butanedione], on TgDHOD, the “Inhibition of TgDHOD (in words)” value was “No significant inhibition” and the “Effect on TgDHOD activity (in words)” value is “not significantly affected; also recorded: no effect”.

Turning to `CC1=CC(=O)c2ccccc2C1=O` [Menadione, 2-methyl-1,4-naphthoquinone], the Km in the assay with PfDHOD [2] was 55 to 115 µM.
